# Data as given in US20250230226A1, “PLXDC1/PLXDC2 ACTIVATORS AND THEIR USE IN THE TREATMENT OF BLOOD VESSEL DISORDERS” (THE REGENTS OF THE UNIVERSITY OF CALIFORNIA, priority 2019, published 2025).
# How the values were obtained:
# [1] = tested on: choroidal endothelial cells; experiment: Ex vivo model of choroidal angiogenesis (FIG. 2); assay type: cell-based
# Procedure: FIG. 2A-E. Comparison of compound 369 (Table 3) with the current anti-angiogenic drug in an ex vivo model of choroidal angiogenesis. A. A schematic diagram of the timeframe of the experiment. […] Treatment lasts for two days before cell death and survival are analyzed. B. Control experiment without any drug treatment at day 7. The white circle in the middle delineates the piece of choroid/RPE that was embedded to initiate neovascularization. C. […] Eylea was added at 10 μM. […] The compound was added at 10 μM. In B-D, green cells are live cells and red cells are dead cells. E. Quantitation of the experiments described in B-D. The amount of new endothelial cells in the untreated control is defined as 100%.
# [2] = tested on: LL/2 lung cancer tumor endothelial cells; experiment: Lung LL2 ex vivo model of tumor angiogenesis; assay type: cell-based, mouse; details: 20 μm
# How it was run: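 Live/dead imaging with FDA and PI, taken e.g. 48 h post-drug under fixed channel settings, measures treatment effects on endothelial cells sprouting from Lewis lung tumor explants. Explants were seeded in Matrigel drops and grown ~4 days in endothelial growth medium, 37 °C, 5% CO2, before dosing.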
# tumor blood vessels = experiment: Systemic administration in tumor-bearing mouse (FIG. 7); assay type: in vivo
# Description: FIG. 7A-D. Systemic administration of a compound that targets PLXDC1 and PLXDC2 kills existing tumor blood vessels and leads to massive tumor necrosis. […] The high specificity of the treatment is illustrated by the healthy skin blood vessels that cover the dead yellow tumor. C. The tumor from control mouse in A is cut open to reveal that it is rich in tumor blood vessels and is a live tumor. D. The tumor from compound-treated mouse in B is cut open to reveal a lack of tumor blood vessels and a necrotic tumor with yellow cheese-like appearance (coagulative necrosis). Coagulative necrosis is exactly what is expected for a treatment that can kill existing tumor blood vessels to block major blood supplies to the tumor. Precise and efficient killing of tumor blood vessels to cause massive tumor death by necrosis, which has been achieved by the compound 369 targeting PLXDC1/PLXDC2, cannot be achieved by any existing drugs or known antiangiogenic factors.
# The tumor died of massive coagulative necrosis, exactly the kind of cell death caused by killing blood vessels.
# tumor endothelial cells = experiment: Ex vivo model of tumor angiogenesis, comparison with anti-VEGF drug and PEDF (FIG. 4); assay type: cell-based; details: cells grown 5 days, test reagents added for 2 days
# Procedure: FIG. 4A-F. A comparison between an anti-VEGF drug, PEDF and two compounds that target PLXDC1/PLXDC2 in an ex vivo model of tumor angiogenesis. […] Tumor endothelial cells were grown for 5 days before test reagents were added for 2 days. Green cells are live cells and red cells are dead cells.
# • 1. The day before the experiment, all necessary tools were sprayed with 70% ethanol and sterilized under UV light overnight, including blade, dissecting and micro-dissecting scissors and […]. 24-well dishes were placed at 4° C. to pre-chill plates and Matrigel was thawed, 24 hours before tumor dissection. • 2. 70% ethanol was sprayed on working bench. Two sterile petri dishes were prepared with 10 ml sterile PBS. The following steps 3 and 4 are necessary for mouse tumor models. For fresh human tumor, steps 3 and 4 are skipped. • 3. The tumor-bearing mice were euthanized. 70% ethanol was sprayed on the mouse and the tumor was removed using sterilized dissecting tools (avoid the fur). The tumor was rinsed in petri dish with sterile PBS to remove ethanol and fur. […] When the assay was ready to be analyzed for cell death (e.g., 48 hours after drug addition), the dye mixture was prepared by mixing 6 μl of green dye to stain live cells (5 mg/ml Fluorescein diacetate or FDA in DMSO) with 30 μl of red dye (2.5 mg/ml Propidium iodide or PI in PBS) to stain dead cells in an Eppendorf tube. […]
smiles,measurement,setting,value
CCCCCCCCCCCCOc1ccc(S(=O)(=O)c2cnc3ccc([S+](C)[O-])cc3c2N2CCC(N3CCC(N4CCN(CCO)CC4)CC3)CC2)cc1F (stereo not drawn) [Compound 369],Killing of endothelial cells in choroidal angiogenesis,"[1]; added at 10 μM at day 7, treatment two days",can kill the endothelial cells
same,Effect on healthy tissue (choroid and retinal pigment epithelium),"[1]; added at 10 μM, two days",without affecting the healthy tissue
same,48 hrs (morphology observations),"[2]; 48 hours, LL/2 tumor endothelial cells",* (50% or less of cells vesicularize in cell shape)
same,Cell death,"[2]; drug treatment for two days, ratio of red area to total endothelial cell area",20%
same,Killing of existing tumor blood vessels and tumor death,tumor blood vessels,can kill existing tumor blood vessels and lead to strong tumor death
same,Killing of existing tumor endothelial cells,tumor endothelial cells,can kill existing tumor endothelial cells
